The source of these data is patent US20050287225A1, “Metal cluster nano-compounds for treating tumor diseases” (priority 2002, published 2005).

Assay [1] relates to U205 osteosarcoma. The experiment in a line: In-vitro cytotoxicity MTT assay (Example 4). The conditions noted are these: 72 h, read-out: IC50 cisplatin 72 h. It is filed as cell-based, human. As to the method:
(§1) The in-vitro cytotoxicity was studied by means of the MTT assay (Promega), a colorimetric method in which a tetrazolium-based compound is reduced by living cells to give formazan. The amount of formazan formed is directly proportional to the number of living cells in the culture. Each cell line was incubated in microliter dishes for 48 hours before adding the medicaments. Cisplatin or Au55 was added, followed by an incubation for 72 or 24 hours. Subsequently, the MTT assays were carried out following Promega's information.
(§2) Table 2 below depicts the inhibitory concentrations of cisplatin and [Au55] incubations with various cell lines over 72 and 24 hours, respectively. The IC50 data were calculated from the graphs obtained from the in vitro cytotoxicity assays MTT. Each experiment was repeated three times independently from one another by way of determination in triplicate.
For orientation: Tetrazolium assays rely on reduction of a dye to a coloured formazan, in cell work by metabolically active cells.

In assay [2] the test system is MV3 metastatic melanoma. The experiment in a line: In-vitro cytotoxicity MTT assay (Example 4). It is filed as cell-based, human. The conditions noted are these: 72 h, read-out: IC50 cisplatin 72 h. The protocol:
as §1, §2

The nature of assay [3]: In-vitro cytotoxicity MTT assay (Example 4). The class given is cell-based, human. Conditions: Hek, 72 h; read-out: IC50 cisplatin 72 h. The protocol: as §1, §2
Assay [4] relates to MOR/P lung cancer cells, cisplatin-sensitive. The experiment in a line: In-vitro cytotoxicity MTT assay (Example 4). It is filed as cell-based, human. The conditions noted are these: 72 h. The protocol: as §1, §2
The subject of assay [5] is HeLa cervical cancer cells. The experiment in a line: In-vitro cytotoxicity MTT assay (Example 4). It is filed as cell-based, human. Conditions: 72 h, read-out: IC50 cisplatin 72 h. As to the method:
as §1, §2

In assay [6] the test system is BLM metastatic melanoma. The experiment in a line: In-vitro cytotoxicity MTT assay (Example 4). It is filed as cell-based, human. Conditions: 72 h, read-out: IC50 cisplatin 72 h. The protocol: as §1, §2
Assay [7] has as its system MC3 normal bone cells. The experiment in a line: In-vitro cytotoxicity MTT assay (Example 4). The class given is cell-based. The conditions noted are these: 72 h, read-out: IC50 cisplatin 72 h. As to the method:
as §1, §2

For assay [8], the system named is MOR/CPR lung cancer cells, cisplatin-resistant. The experiment in a line: In-vitro cytotoxicity MTT assay (Example 4). The class given is cell-based, human. As to the method:
as §1
Diagram 4 relates to in-vitro cytotoxicity assays on cisplatin-resistant MOR/CPR lung tumor cells, incubated with different concentrations of Au55(Ph2PC6H4SO3H)12Cl6 [Au55] for 24 hours. Each point represents 3 experiments carried out independently of one another and repeated in each case three times.
Diagramm 5 relates to in-vitro cytotoxicity assays on cisplatin-resistant MOR/CPR lung tumor cells incubated with different concentrations of free ligand, Ph2PC6H4SO3H, for 24 hours. Each point represents 3 independent experiments repeated in each case in triplicate.
Table 2 below depicts the inhibitory concentrations of cisplatin and [Au55] incubations with various cell lines over 72 and 24 hours, respectively. The IC50 data were calculated from the graphs obtained from the in vitro cytotoxicity assays MTT. […]

In assay [9] the test system is MOR/P lung cancer cells (cisplatin-sensitive). The experiment in a line: In-vitro cell toxicity, MTT colorimetry assay (Example 2). It is filed as cell-based, human. Conditions: comparison value, incubation not stated. The protocol:
(§3) The in-vitro cytotoxicity properties of the gold-55 particles (Au55) prepared in example 1. C) were carried out on HeLa cancer cells and on MOR/P and MOR/CPR lung cancer cells. MOR/P cells are sensitive to cisplatin, while MOR/CPR cells are resistant to cisplatin.
(§4) The HeLa cells were grown on a DMEM medium at 37° C. in a 5% CO2 atmosphere. The medium had been supplemented with 10% strength FCS serum and antibiotics. Daughter cultures were generated twice weekly. The MOR/P and MOR/CPR cells were grown on an RPMI 1640 medium at 37° C. in a 5% CO2 atmosphere. Said medium had likewise been supplemented with 10% strength FCS serum and antibiotics. Here too, daughter cultures were generated twice weekly.
(§5) The in-vitro cytotoxicity of the Au55 particles was determined in the following manner using 96-well microtiter plates and an MTT colorimetry assay (CellTiter 96® Aqueous One Solution Cell Proliferation Assay, Promega):
(§6) Cultures of each cell line were applied at a concentration of 1—10^5 cells/ml to the microtiter plates and grown in the above-described media at 37° C. in a 5% CO2 atmosphere for 72 hours. […]
(§7) Absorption at 490 nm was measured for each well of each microtiter plate by using a 96-well microtiter plate reader. The absorption measured at 490 nm was plotted as a function of the Au55 particle concentration and the IC50 value was determined.

The subject of assay [10] is MOR/CPR lung cancer cells (cisplatin-resistant). Described as above. The class given is cell-based, human. The conditions noted are these: comparison value, incubation not stated. As to the method:
as §3, §4, §5, §6, §7

Each structure is given as a SMILES string. Bounds are passed on as bounds.

By IC50 is commonly meant the concentration that inhibits the measured activity by half. In the case of `N.N.[Cl][Pt][Cl]` [cisplatin, cis-diaminodichloroplatinum(II)], the IC50 in assay [1] was 11.2 ± 2.02 µM; in assay [2] it was above 50 µM; in [3] it was 20.1 ± 6 µM; in [4] it was 3.3 ± 0.3 µM; in assay [5] it was 7.93 ± 0.95 µM; in [6], 54.7 ± 7.6 µM. For the same molecule, the IC50 in assay [7] worked out at 26.1 ± 1.27 µM; in [8] (72 h), 7.1 ± 1.2 µM; in assay [9], 3.3 ± 0.3 µM; in [10], 7.1 ± 1.2 µM.
Turning to `O=S(=O)(O)c1cccc(P(c2ccccc2)c2ccccc2)c1` [ligand molecules, Ph2PC6H4SO3H], in assay [8] (different concentrations of free ligand, 24 hours), the “Influence of the ligand molecules themselves on the life span of the cells” value was “cannot be detected”.
